The structures appear in SMILES notation.

This test has as its target T1, BtubA*B (Prosthecobacter dejongeii, UniProt A0A7W7YIU5+A0A7W7YJ10, A0A7W7YIU5:R284G/A0A7W7YIU5:K286D/A0A7W7YIU5:F287G).
T1 construct: gene HNQ64_001272; BtubA M-loop triple mutant coexpressed with BtubB in E. coli C41(DE3); no tag mentioned; single protofilament polymer; Methods once print R286D instead of K286D
T1 sequence (A0A7W7YIU5 1-473 R284G/K286D/F287G): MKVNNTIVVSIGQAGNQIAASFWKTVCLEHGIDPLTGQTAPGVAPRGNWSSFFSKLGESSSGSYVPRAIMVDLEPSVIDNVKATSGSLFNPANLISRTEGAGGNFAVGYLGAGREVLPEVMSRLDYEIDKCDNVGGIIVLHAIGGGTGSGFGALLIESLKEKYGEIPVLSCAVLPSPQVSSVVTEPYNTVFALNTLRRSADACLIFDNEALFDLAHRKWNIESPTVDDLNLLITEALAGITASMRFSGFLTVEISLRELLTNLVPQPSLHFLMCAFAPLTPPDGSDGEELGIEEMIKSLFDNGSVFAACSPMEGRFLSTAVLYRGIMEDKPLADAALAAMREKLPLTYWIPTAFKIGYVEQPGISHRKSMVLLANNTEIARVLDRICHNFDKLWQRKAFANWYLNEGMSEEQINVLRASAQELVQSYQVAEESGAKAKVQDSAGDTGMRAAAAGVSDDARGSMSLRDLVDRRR
T1 sequence (A0A7W7YJ10 1-426): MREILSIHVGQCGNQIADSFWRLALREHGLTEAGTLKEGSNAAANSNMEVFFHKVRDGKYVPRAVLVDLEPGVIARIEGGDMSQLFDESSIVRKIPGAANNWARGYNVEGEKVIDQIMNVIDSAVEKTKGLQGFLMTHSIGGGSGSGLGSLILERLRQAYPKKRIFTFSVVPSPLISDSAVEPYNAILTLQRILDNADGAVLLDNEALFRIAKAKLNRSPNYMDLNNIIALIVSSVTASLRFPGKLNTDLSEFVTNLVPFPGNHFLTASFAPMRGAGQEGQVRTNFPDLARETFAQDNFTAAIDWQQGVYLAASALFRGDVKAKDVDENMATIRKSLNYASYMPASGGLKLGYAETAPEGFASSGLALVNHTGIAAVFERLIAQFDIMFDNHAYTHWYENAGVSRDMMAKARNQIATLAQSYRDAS
Briefly: polymerization seen by cryo-EM (~[…] Å map). To be noted: 5 mM GTP, 5 mM magnesium acetate, pH 7.7, 20 °C; nucleotide not resolved. The format is biochemical.

Turning to `Nc1nc2c(ncn2[C@@H]2O[C@H](COP(=O)(O)OP(=O)(O)OP(=O)(O)O)[C@@H](O)[C@H]2O)c(=O)[nH]1` [GTP], the “polymerization seen by cryo-EM (~8 Å map)” value was “BtubA*B polymerizes in the presence of GTP and GMPCPP to form straight single protofilaments”.

Values taken from publication PMC10058229, “Diverse cytomotive actins and tubulins share a polymerization switch mechanism conferring robust dynamics” (Science Advances, 2023).
